Source: patent US4670434A, “(2-oxo-3-methylene-1,2,3,5-tetrahydroimidazo[2,1-b]q uinazolinyl)oxyalkylamides useful as cyclic AMP phosphodiesterase inhibitors” (Syntex (U.S.A.) Inc., priority 1985, dated 1987)

Experiments:
[1] = tested on: Human platelet cyclic AMP phosphodiesterase; assay: Cyclic AMP phosphodiesterase assay; assay type: biochemical; conditions: 1 μM cyclic AMP as substrate; human platelet enzyme; read-out: IC50 value, inhibition of cyclic AMP phosphodiesterase
Method: (§1) Cyclic AMP phosphodiesterase activity and inhibition of platelet aggregation were determined as follows.
Cyclic AMP phosphodiesterase assay
The inhibition of cyclic AMP phosphodiesterase activity by the subject compounds was assayed by the method of Filburn and Karn, Analyt. Biochem., 52: 505-516 (1973), using 1 μM cyclic AMP as the substrate. Human platelet cyclic AMP phosphodiesterase was obtained from human donors. Platelets were isolated and washed by centrifugation, the membranes ruptured by a sequential freeze-thaw procedure and hypotonic lysis and the soluble enzyme isolated by high speed centrifugation. The enzyme was stored in aliquots at -20° C.

human platelets = assay: Platelet aggregation (turbidimetric); assay type: cell-based; conditions: platelet rich plasma
Method: as §1
Blood was collected into evacuated tubes containing sodium citrate (30 mM). Platelet rich plasma was collected after centrifugation. Aggregation was followed by a turbidimetric procedure described by G. V. R. Born, J. Physiol., Lond., 162: 67P-68P (1962).

Mongrel dogs = assay: Inotropic activity in anesthetized mongrel dogs; assay type: in vivo; conditions: intravenous, anesthetized dog
Method: The inotropic activity of these compounds was determined as follows: Mongrel dogs were anesthetized i.v. with 35 mg/Kg sodium pentobarbital and supplemented as needed. Blood pressure was measured with a Statham pressure transducer via a cannula inserted from a femoral artery into the abdominal aorta. Heart rate was recorded by a cardiotachometer from a lead II electrocardiogram. Right ventricular contractile force was recorded from a Walton-Brodie strain gauge sutured to the right ventricle following a midsternal thoracotomy. A Harvard respirator was used to ventilate the dogs with room air through an endotracheal tube. The dog was bilaterally vagotomized. Following a midline laparotomy, a cannula was sutured into the duodenum for intraduodenal administration of test compound. A femoral vein was cannulated for administration of isoproterenol. All data were recorded on a Beckman R611 Dynograph.
To assess the responsiveness of each dog, isoproterenol was given i.v. at half-log interval doses from 0.007 to 2.1 or 6.67 μg/Kg. The test compound, N-cyclohexyl-N-methyl-4-(2-oxo-3-methylene-1,2,3,5-tetrahydroimidazo-[2,1- b]quinazolin-7-yl)oxybutanamide, was then administered intravenously at dose levels from 0.1 to 1.0 mg/Kg.

Structure (SMILES): C=c1c(=O)[nH]c2n1Cc1cc(OCCCC(=O)N(C)C3CCCCC3)ccc1N=2 [N-cyclohexyl-N-methyl-4-(2-oxo-3-methylene-1,2,3,5-tetrahydroimidazo[2,1-b]quinazolin-7-yl)oxybutanamide]
- IC50 [1]: 2.7 nM
- IC50 (human platelets): 150 nM
- Peak Effects as % of Max. Isoproterenol, Blood Pressure (Mongrel dogs; 0.1 mg/kg): 42 % of Max. Isoproterenol
- Peak Effects as % of Max. Isoproterenol, Heart Rate (Mongrel dogs; 0.1 mg/kg): 18 % of Max. Isoproterenol
- Peak Effects as % of Max. Isoproterenol, Rt. Ventricular Contractile Force (Mongrel dogs; 0.1 mg/kg): 24 % of Max. Isoproterenol
- Peak Effects as % of Max. Isoproterenol, Blood Pressure (Mongrel dogs; 0.316 mg/kg): 58 % of Max. Isoproterenol
- Peak Effects as % of Max. Isoproterenol, Heart Rate (Mongrel dogs; 0.316 mg/kg): 28 % of Max. Isoproterenol
- Peak Effects as % of Max. Isoproterenol, Rt. Ventricular Contractile Force (Mongrel dogs; 0.316 mg/kg): 52 % of Max. Isoproterenol
- Peak Effects as % of Max. Isoproterenol, Blood Pressure (Mongrel dogs; 1.0 mg/kg): 65 % of Max. Isoproterenol
- Peak Effects as % of Max. Isoproterenol, Heart Rate (Mongrel dogs; 1.0 mg/kg): 34 % of Max. Isoproterenol
- Peak Effects as % of Max. Isoproterenol, Rt. Ventricular Contractile Force (Mongrel dogs; 1.0 mg/kg): 62 % of Max. Isoproterenol
